# From patent publication US20250214925A1, “CATIONIC LIPID, LIPOSOME, LIPID NANOPARTICLE, AND USE” (CARCELL BIOPHARMA LTD., priority 2022, published 2025)
# How the values were obtained:
# [1] = LNP size and PDI by dynamic laser light scattering; assay type: physicochemical; conditions: LNP: 50% cationic lipid, 38.5% cholesterol, 10% DSPC, 1.5% DMG-PEG2000; Ffluc mRNA
# Protocol: (§1) 1. The cationic lipid (50 mg/mL) prepared in the above examples of the present disclosure, cholesterol (20 mg/mL), DSPC (20 mg/mL) and DMG-PEG2000 (20 mg/mL) were dissolved in ethanol, and the solution was placed in a 55° C. metal thermostatic bath as needed to aid dissolution, to obtain a lipid mixture with the following molar composition: 1.5% DMG-PEG2000, 50% cationic lipid, 38.5% cholesterol, and 10% DSPC.
# (§2) 2. The mRNA encoding Ffluc was diluted with 10 mM pH 4.0 citrate buffer to prepare a 0.2 mg/mL mRNA solution.
# (§3) 3. The lipid mixture prepared in step 1 was mixed with the mRNA solution prepared in step 2 using a syringe pump with a tee at a total flow rate of 40 mL/min.
# (§4) 4. The LNP mixture was collected after the three-way mixing and placed in a dialysis bag with a molecular weight cut-off of 100 KDa.
# (§5) 5. The LNP mixture was dialyzed overnight against 50 mM Tris-buffered saline, pH 7.4.
# (§6) 6. Sieving, and subsequent measurement of the sieved LNP to measure the PDI of the LNP by dynamic laser light scattering; to measure the mRNA encapsulation efficiency and concentration by Ribogreen assay; and to measure the pKa by TNS-α assay.
# [2] = mRNA encapsulation efficiency of LNP by Ribogreen assay; assay type: physicochemical; conditions: LNP: 50% cationic lipid, 38.5% cholesterol, 10% DSPC, 1.5% DMG-PEG2000; Ffluc mRNA
# Protocol: as §1, §2, §3, §4, §5, §6
# mice = assay: In vivo delivery of Ffluc mRNA LNP in mice, intravenous administration, luminescence relative to MC3; set-up: species or system mice (female Balb/C); conditions: fold change in luminescence intensity relative to MC3; 0.06 mg/kg tail vein; 6 h after injection
# Protocol: The prepared encapsulation solution was applied to mice in the following manner, and its delivery efficiency in mice was tested. Among them, DLin-MC3-DMA (MC3) was a cationic liposome for delivering small nucleic acids that was approved by the FDA for marketing in 2018, which has high nucleic acid drug delivery efficiency and biosafety, and was usually used as the industry gold standard in the screening process of cationic lipids. In the evaluation of mice experiments, the ratio of nucleic acid delivery efficiency normalized to MC3 was greater than 0.1, which was considered to be a cationic lipid with high delivery efficiency.
# 1. The LNP solution was diluted with 50 mM TBS, pH 7.4 to a concentration of 0.1 mg/mL mRNA.
# 2. The mice involved in this study were female Balb/C, weighing 18-22 g, 6-8 weeks old, with 5 mice in each group.
# 3. The dosing solution was kept at 4° C. prior to injection.
# 4. Each mice received 0.06 mg/kg via tail vein injection.
# 5. The mice were injected intraperitoneally with 200 μL of 1.5 mg/mL D-luciferin solution 6 h after injection.
# 6. The in vivo luminescence images of the mice were obtained using the IVIS system (Aniview).
# 7. The luminescence intensity of each mice was measured using Aniview software.
# 8. MC3 lipid nanoparticles were used as a positive control. The in vivo efficacy of each cationic lipid tested was recorded as the fold change in luminescence intensity relative to MC3 (ratio normalized to MC3).
SMILES,PDI [1],Size (nm) [1] [nm],Encapsulation Rate [2] [%],In Vivo Efficacy Normalized To Mc3 In Mice (Intravenous Injection) (mice)
"CCCCC/C=C\C/C=C\CCCCCCCC(=O)OCC(COC(=O)/C=C(\CCCCCCC)CCCCCCCC)COC(=O)OCCCN(CC)CC (stereo not drawn) [CPL-274, 3-(((3-(diethylamino)propoxy)carbonyl)oxy)-2-((((E)-3-heptylundec-2-enoyl)oxy)methyl)propyl(9Z,12Z)-octadeca-9,12-dienoate]",0.1812,78.29,97,0.37
"CCCCC/C=C\C/C=C\CCCCCCCC(=O)OCC(COC(=O)/C=C(\CCCCCC)CCCCCCCC)COC(=O)OCCC1CCN(C)CC1 (stereo not drawn) [CPL-292, 3-(((E)-3-hexylundec-2-enoyl)oxy)-2-((((2-(1-methylpiperidin-4-yl)ethoxy)carbonyl)oxy)methyl)propyl(9Z,12Z)-octadeca-9,12-dienoate]",0.1816,90.31,97,0.27
"CCCCC/C=C\C/C=C\CCCCCCCC(=O)OCC(COC(=O)/C=C(/CCCCCCCC)CCCCCCCCCC)COC(=O)OCC1CCN(C)C1 (stereo not drawn) [CPL-343, 3-((((1-methylpyrrolidin-3-yl)methoxy)carbonyl)oxy)-2-((((Z)-3-octyltridec-2-enoyl)oxy)methyl)propyl(9Z,12Z)-octadeca-9,12-dienoate]",0.1584,116.3,85,0.44
"CCCCC/C=C\C/C=C\CCCCCCCC(=O)OCC(COC(=O)/C=C(/CCCC)CCCCCC)COC(=O)OCCCN1CCN(C)CC1 (stereo not drawn) [CPL-394, 3-(((Z)-3-butylnon-2-enoyl)oxy)-2-((((3-(4-methylpiperazin-1-y)propoxy)carbonyl)oxy)methyl)propyl(9Z,12Z)-octadeca-9,12-dienoate]",0.1069,95.77,97,0.13
"CCCCC/C=C\C/C=C\CCCCCCCC(=O)OCC(COC(=O)/C=C(\CCCCCCC)CCCCCCCCCC)COC(=O)OCCCN1CCN(C)CC1 (stereo not drawn) [CPL-407, 3-(((E)-3-heptyltridec-2-enoyl)oxy)-2-((((3-(4-methylpiperazin-1-yl)propoxy)carbonyl)oxy)methyl)propyl(9Z,12Z)-octadeca-9,12-dienoate]",0.0562,98.86,97,0.21
"CCCCC/C=C\C/C=C\CCCCCCCC(=O)OCC(COC(=O)/C=C(/CCCC)CCCCCC)COC(=O)OCCCN1CCCCC1 (stereo not drawn) [CPL-416, 3-(((Z)-3-butylnon-2-enoyl)oxy)-2-((((3-(piperidin-1-yl)propoxy)carbonyl)oxy)methyl)propyl(9Z,12Z)-octadeca-9,12-dienoate]",0.009,91.52,96,0.43
"CCCCC/C=C\C/C=C\CCCCCCCC(=O)OCC(COC(=O)/C=C(\CCCCC)CCCCCCCC)COC(=O)OCCCN1CCCCC1 (stereo not drawn) [CPL-421, 3-(((E)-3-pentylundec-2-enoyl)oxy)-2-((((3-(piperidin-1-yl)propoxy)carbonyl)oxy)methyl)propyl(9Z,12Z)-octadeca-9,12-dienoate]",0.1904,82.69,94,0.37
"CCCCC/C=C\C/C=C\CCCCCCCC(=O)OCC(COC(=O)/C=C(\CCCCCCC)CCCCCCCC)COC(=O)OCCCN1CCCCC1 (stereo not drawn) [CPL-428, 3-(((E)-3-heptylundec-2-enoyl)oxy)-2-((((3-(piperidin-1-yl)propoxy)carbonyl)oxy)methyl)propyl(9Z,12Z)-octadeca-9,12-dienoate]",0.1411,73.57,96,0.34
CCCCC/C=C\C/C=C\CCCCCCCC(=O)OCC(COC(=O)/C=C(/CCCCCCCC)CCCCCCCCCC)COC(=O)OCC1CCN(CC)CC1 (stereo not drawn) [CPL-453],0.0653,81.2,98,0.82

# More lines, main results first:
PDI [1],Size (nm) [1] [nm],Encapsulation Rate [2] [%],SMILES,In Vivo Efficacy Normalized To Mc3 In Mice (Intravenous Injection) (mice)
0.1961,99.42,95,"CCCCC/C=C\C/C=C\CCCCCCCC(=O)OCC(COC(=O)/C=C(\CCC)CCCCCC)COC(=O)OCC1CCN(C)C1 (stereo not drawn) [CPL-324, 3-((((1-methylpyrrolidin-3-yl)methoxy)carbonyl)oxy)-2-((((E)-3-propylnon-2-enoyl)oxy)methyl)propyl(9Z,12Z)-octadeca-9,12-dienoate]",0.31
0.0596,75.57,97,"CCCCC/C=C\C/C=C\CCCCCCCC(=O)OCC(COC(=O)/C=C(\CCCC)CCCCCCCC)COC(=O)OCC1CCN(C)C1 (stereo not drawn) [CPL-329, 3-(((E)-3-butylundec-2-enoyl)oxy)-2-(((((1-methylpyrrolidin-3-yl)methoxy)carbonyl)oxy)methyl)propyl(9Z,12Z)-octadeca-9,12-dienoate]",0.33
0.1084,83.4,99,"CCCCC/C=C\C/C=C\CCCCCCCC(=O)OCC(COC(=O)/C=C(\CCCC)CCCCCCC)COC(=O)OCC1CCN(C)C1 (stereo not drawn) [CPL-338, 3-(((E)-3-butyldec-2-enoyl)oxy)-2-(((((1-methylpyrrolidin-3-yl)methoxy)carbonyl)oxy)methyl)propyl(9Z,12Z)-octadeca-9,12-dienoate]",0.52
0.1182,90.88,98,"CCCCC/C=C\C/C=C\CCCCCCCC(=O)OCC(COC(=O)/C=C(/CCCC)CCCCCC)COC(=O)OCC1CCCN(C)C1 (stereo not drawn) [CPL-372, 3-(((Z)-3-butylnon-2-enoyl)oxy)-2-(((((1-methylpiperidin-3-yl)methoxy)carbonyl)oxy)methyl)propyl(9Z,12Z)-octadeca-9,12-dienoate]",1.01
0.1248,88.31,94,"CCCCC/C=C\C/C=C\CCCCCCCC(=O)OCC(COC(=O)/C=C(\CCCCC)CCCCCCCC)COC(=O)OCC1CCCN(C)C1 (stereo not drawn) [CPL-377, 3-((((1-methylpiperidin-3-yl)methoxy)carbonyl)oxy)-2-((((E)-3-pentylundec-2-enoyl)oxy)methyl)propyl(9Z,12Z)-octadeca-9,12-dienoate]",0.45
0.1099,82.38,96,"CCCCC/C=C\C/C=C\CCCCCCCC(=O)OCC(COC(=O)/C=C(\CCCCC)CCCCCCCCCC)COC(=O)OCC1CCCN(C)C1 (stereo not drawn) [CPL-378, 3-((((1-methylpiperidin-3-yl)methoxy)carbonyl)oxy)-2-((((E)-3-_pentyltridec-2-enoyl)oxy)methyl)propyl(9Z,12Z)-octadeca-9,12-dienoate]",0.43
0.1174,83.86,91,"CCCCC/C=C\C/C=C\CCCCCCCC(=O)OCC(COC(=O)/C=C(\CCCCCC)CCCCCCCCCC)COC(=O)OCC1CCCN(C)C1 (stereo not drawn) [CPL-381, 3-(((E)-3-hexyltridec-2-enoyl)oxy)-2-(((((1-methylpiperidin-3-yl)methoxy)carbonyl)oxy)methyl)propyl(9Z,12Z)-octadeca-9,12-dienoate]",0.81
0.1733,99.82,97,CCCCC/C=C\C/C=C\CCCCCCCC(=O)OCC(COC(=O)/C=C(\CCCCCC)CCCCCCC)COC(=O)OCC1CCCN(C)C1 (stereo not drawn) [CPL-383],0.80
0.0875,73.57,97,"CCCCC/C=C\C/C=C\CCCCCCCC(=O)OCC(COC(=O)/C=C(\CCCCCC)CCCCCCC)COC(=O)OCC1CCN(CC)CC1 (stereo not drawn) [CPL-449, 3-((((1-ethylpiperidin-4-yl)methoxy)carbonyl)oxy)-2-((((E)-3-hexyldec-2-enoyl)oxy)methyl)propyl(9Z,12Z)-octadeca-9,12-dienoate]",0.49
